For one data set, the target named is T1, hERG potassium channels (Homo sapiens, UniProt Q12809).
T1 construct: expressed in transfected cells; host or cells: HEK-293-hERG cells
As to the kind of experiment: Test for inhibition of hERG potassium channels (whole-cell patch clamp, HEK-293-hERG cells). In kind it is cell-based. From the text:
Positive control: Amitriptyline hydrochloride or Terfenadine
A general note: Block of hERG is tested as a sign of cardiac risk.

The nature of data set [1]: Metabolic stability in (human) liver microsomes. The conditions noted are these: pH 7.4, test concentration 1 μM. The class given is in vitro ADME. A general note: Liver microsomes are a subcellular fraction often used to study metabolism.
Protocol: 3×NADPH stock solution (6 mM, 5 mg/mL) was prepared by dissolving NADPH in the buffer solution; 4. 30 μL of 1.5 μM additive solution containing 0.75 mg/mL microsomal solution was distributed to the plates designated for different time points (0, 5, 15, 30, 45 minutes); 5. at 0 min, 150 μL of ACN containing IS was added to the wells of the plate, followed by addition of 15 μL of NADPH stock solution (6 mM, step 3); 6. all other plates were pre-incubated at 37° C. for 5 minutes; 7. adding 15 μL of NADPH stock solution to the plate to start the reaction and timing; 8. 150 μL of ACN containing IS was added to the wells of the corresponding plates to stop the reaction at 5 min, 15 min, 30 min and 45 min, respectively; 9. after quenching, the plates were shaken on a shaker for 10 minutes (600 rpm/min) and then centrifuged at 6000 rpm for 15 minutes; 10. 80 μL of supernatant was transferred from each well to a 96-well sample plate containing 140 μL water for LC/MS analysis.
Detection method: LC-MS/MS-11 (8050), internal standard: tolbutamide; MS conditions: positive ion ESI for testosterone and test compound, and negative ion ESI for tolbutamide; Mobile phases: mobile phase A is 0.1% FA in water, and mobile phase B is 0.1% FA in ACN; Column and specification: ACQUITY UPLC HSS T3 1.8 um 2.1*50 mm.
Data set [2] relates to ICR mice. Kind of data set: Toxicological experiment in mice, 14-day repeated oral gavage (toxicity study). The class given is in vivo. Here is the method: (§1) Experimental method: 212 ICR mice (SPF grade), half male and half female. Animals in groups 1-5 were used for toxicity study, with 10 male and 10 female animals in each group; and animals in groups 6-9 were used for toxicokinetic study, with 14 male and 14 female animals in each group (2 of them were spare animals). […] Animals in Groups 1-9 were administered orally once a day for 14 consecutive days.

A short description of data set [3]: Toxicological experiment in mice, 14-day repeated oral gavage (toxicokinetic study). The class given is in vivo, mouse. Particulars: ICR, mouse, po, 200 mg/kg, Day 14; for AUC(0-t): plasma, read-out: AUC(0-t), the systemic exposure (first value listed). Here is the method: as §1
Data set [4] concerns ICR mice. The data set is described as above. The class given is in vivo, mouse. The conditions noted are these: toxicokinetic study, male animals, 200 mg/kg oral once a day for 14 days. Here is the method:
as §1

Each structure is given as a SMILES string. Read-outs that look alike come from different tables or passages of the source.

T1 sequence (Q12809 whole entry): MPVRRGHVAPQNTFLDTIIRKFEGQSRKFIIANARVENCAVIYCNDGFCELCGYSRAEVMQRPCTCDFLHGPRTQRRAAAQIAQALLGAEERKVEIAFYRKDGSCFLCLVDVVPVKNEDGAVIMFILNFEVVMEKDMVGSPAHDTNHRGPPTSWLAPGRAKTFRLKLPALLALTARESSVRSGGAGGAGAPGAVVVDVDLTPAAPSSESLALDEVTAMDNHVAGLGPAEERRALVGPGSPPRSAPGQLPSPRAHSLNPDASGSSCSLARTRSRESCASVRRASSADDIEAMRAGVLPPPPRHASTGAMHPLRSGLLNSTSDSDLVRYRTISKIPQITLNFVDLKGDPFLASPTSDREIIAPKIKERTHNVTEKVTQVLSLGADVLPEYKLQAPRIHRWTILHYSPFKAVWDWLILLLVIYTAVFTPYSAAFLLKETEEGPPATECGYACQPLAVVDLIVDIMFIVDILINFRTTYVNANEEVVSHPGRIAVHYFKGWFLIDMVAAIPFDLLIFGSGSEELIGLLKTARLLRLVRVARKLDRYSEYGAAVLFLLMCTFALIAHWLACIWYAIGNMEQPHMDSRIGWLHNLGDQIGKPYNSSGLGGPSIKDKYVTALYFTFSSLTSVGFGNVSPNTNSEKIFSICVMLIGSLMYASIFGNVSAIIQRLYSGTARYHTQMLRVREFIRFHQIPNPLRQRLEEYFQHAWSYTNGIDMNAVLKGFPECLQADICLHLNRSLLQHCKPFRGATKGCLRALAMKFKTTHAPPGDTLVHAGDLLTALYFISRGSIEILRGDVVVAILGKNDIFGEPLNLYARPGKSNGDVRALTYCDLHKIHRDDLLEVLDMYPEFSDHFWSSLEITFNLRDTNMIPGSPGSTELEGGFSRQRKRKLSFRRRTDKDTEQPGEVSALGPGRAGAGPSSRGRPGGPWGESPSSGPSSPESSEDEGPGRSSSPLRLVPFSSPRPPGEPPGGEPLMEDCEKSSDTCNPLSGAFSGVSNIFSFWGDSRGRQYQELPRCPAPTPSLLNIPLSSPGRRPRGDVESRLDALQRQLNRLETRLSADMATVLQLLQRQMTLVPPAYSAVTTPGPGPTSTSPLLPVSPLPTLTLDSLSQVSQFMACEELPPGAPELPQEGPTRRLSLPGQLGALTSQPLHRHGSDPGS

Take `N#Cc1ccc(COc2cccc(C3CCN(Cc4nc5ccc(C(=O)O)cc5n4C[C@@H]4CCO4)CC3)n2)c(F)c1` [Compound 20, 2-[(4-{6-[(4-cyano-2-fluorophenyl)methoxy]pyridin-2-yl}piperidin-1-yl)methyl]-1-{[(2S)-oxetan-2-yl]methyl}-1H-1,3-benzodiazole-6-carboxylic acid, reference compound]: at hERG potassium channels, half-maximal inhibition (IC50) was put at 5.8 µM. For the same compound, the half-life (commonly the time in which the quantity being followed falls by half) at 1 μM in data set [1] was found to be 1.87 h. In the data set on ICR mice [2] (ICR mice, gavage once a day for 14 consecutive days), the “non-toxic response dose level” value was “less than 200 mg/kg”. Also, the “biochemical analysis of serum” value in the data set on ICR mice [2] (compared to vehicle control) is “increase in TBIL”. Besides, the clinical observation result in the data set on ICR mice [2] (toxicity and toxicokinetic studies, 200 mg/kg) was “decreased activity, piloerection, cold skin when touched, arched-back posture and prone position were frequently observed”. In addition, the animals found dead in the data set on ICR mice [2] (toxicity study, male animals, 200 mg/kg oral once a day for 14 days) is 2/10; in the data set with ICR mice [4], 4/14. For the same compound, the AUC(0-inf) (commonly the area under the concentration-time curve extrapolated to infinity) in data set [3] (plasma of female animals) amounted to 331 µg·h/mL; in data set [3] (plasma of male animals), 254 µg·h/mL. Besides, the results for the Cmax in data set [3] (plasma of female animals) and in data set [3] (plasma of male animals) were 104 µg/mL and 91 µg/mL, respectively. For the same compound, the AUC(0-t) (usually the area under the concentration-time curve up to a stated or last time point) came to 338 µg·h/mL in data set [3] (female, plasma of female animals) and 387 µg·h/mL in data set [3] (male, plasma of male animals).

These data come from patent US11981666B2, “GLP-1 receptor agonist and composition and use thereof” (HANGZHOU ZHONGMEIHUADONG PHARMACEUTICAL CO., LTD., priority 2021, dated 2024).
